Data as given in patent US20250074907A1, “INHIBITORS OF SARS-COV-2” (THE TEXAS A&M UNIVERSITY SYSTEM, priority 2021, published 2025).
pIC50: −log10 of the molar value.

Target: main protease (Mpro) of SARS-CoV-2 (Severe acute respiratory syndrome coronavirus 2 (2019-nCoV) (SARS-CoV-2), UniProt P0DTD1)
Assay: Enzyme IC50 of SARS-CoV-2 inhibitors
Type: biochemical
Settings: Table 1, Example SARS-COV-2 inhibitors

| SMILES | pIC50 |
| --- | --- |
| Cc1cncc(-c2nnc3n2CCN(C(c2ccccc2)c2ccccc2)C3)c1 [PKJ-585] | 5.24 |

Same assay, conditions: Table 2, List of compounds

| SMILES | pIC50 |
| --- | --- |
| O=C(c1cncc2cc[nH]c12)N1CCN(C2c3ccccc3CS(=O)(=O)c3ccc(F)cc32)CC1 (centres unmarked) [NZ- 832, [4-(2-fluoro-5,5-dioxo-6,11-dihydrobenzo[c][1]benzothiepin-11-yl)piperazin-1-yl]-(1H-pyrrolo[3,2-c]pyridin-7-yl)methanone] | 7.74 |
| O=C1Cc2ccccc2C(=C2CCN(C(=O)c3cncc4cc[nH]c34)CC2)c2ccsc21 [NZ- 836] | 7.70 to 8.05 |
| O=C1Cc2ccccc2C(=C2CCN(C(=O)c3cncc4cc[nH]c34)CC2)c2ccccc21 [NZ- 839] | 7.74 |
| O=C(c1cncc2cc[nH]c12)N1CCN(C2c3cc(F)ccc3CS(=O)(=O)c3ccccc32)CC1 (centres unmarked) [NZ- 834, [4-(9-fluoro-5,5-dioxo-6,11-dihydrobenzo[c][1]benzothiepin-11-yl)piperazin-1-yl]-(1H-pyrrolo[3,2-c]pyridin-7-yl)methanone] | 7.33 to 7.85 |
| O=C(c1cncc2cc[nH]c12)N1CCC(=C2c3ccccc3C3OC3c3ccccc32)CC1 (centres unmarked) [NZ- 838] | 7.04 |
| Cc1cncc(C(=O)N2CCC(=C3c4ccccc4CC(=O)c4sccc43)CC2)c1 [NZ- 835, 2-[1-(5-methylpyridine-3-carbonyl)-4-piperidylidene]-6-thiatricyclo[8.4.0.03,7]tetradeca-1(10),3(7),4,11,13-pentaen-8-one] | 7.32 to 7.57 |
| O=C(c1cncc2cc[nH]c12)N1CCC(=C2c3ccccc3C[S+]([O-])c3ccccc32)CC1 (centres unmarked) [NZ- 829, [4-(5-oxo-6H-benzo[c][1]benzothiepin-11-ylidene)-1-piperidyl]-(1H-pyrrolo[3,2-c]pyridin-7-yl)methanone] | 7.51 to 7.82 |
| Cc1cncc(C(=O)N2CCN(C3c4ccccc4CS(=O)(=O)c4ccc(F)cc43)CC2)c1 (centres unmarked) [NZ- 831, [4-(2-fluoro-5,5-dioxo-6,11-dihydrobenzo[c][1]benzothiepin-11-yl)piperazin-1-yl]-(5-methyl-3-pyridyl)methanone] | 7.35 |
| Cc1cncc(C(=O)N2CCC(=C3c4ccccc4C[S+]([O-])c4ccccc43)CC2)c1 (centres unmarked) [NZ- 826, (5-methyl-3-pyridyl)-[4-(5-oxo-6H-benzo[c][1]benzothiepin-11-ylidene)-1-piperidyl]methanone] | 7.15 to 7.22 |
| Cc1cncc(C(=O)N2CCC(=C3c4ccccc4CS(=N)(=O)c4ccccc43)CC2)c1 (centres unmarked) [NZ- 827, [4-(5-imino-5-oxo-6H-benzo[c][1]benzothiepin-11-ylidene)-1-piperidyl]-(5-methyl-3-pyridyl)methanone] | 7.24 |
| O=C(c1cncc2cc[nH]c12)N1CCC(=C2c3ccccc3CSc3ccccc32)CC1 [NZ- 828, [4-(6H-benzo[c][1]benzothiepin-11-ylidene)-1-piperidyl]-(1H-pyrrolo[3,2-c]pyridin-7-yl)methanone] | 7.48 to 7.68 |
| Cc1cncc(C(=O)N2CCN(C3c4cc(F)ccc4CS(=O)(=O)c4ccccc43)CC2)c1 (centres unmarked) [NZ- 833, [4-(9-fluoro-5,5-dioxo-6,11-dihydrobenzo[c][1]benzothiepin-11-yl)piperazin-1-yl]-(5-methyl-3-pyridyl)methanone] | 6.89 to 7.18 |
| N=S1(=O)Cc2ccccc2C(=C2CCN(C(=O)c3cncc4cc[nH]c34)CC2)c2ccccc21 (centres unmarked) [NZ- 830, [4-(5-imino-5-oxo-6H-benzo[c][1]benzothiepin-11-ylidene)-1-piperidyl]-(1H-pyrrolo [3,2-c]pyridin-7-yl)methanone] | 7.41 to 7.49 |
